Laboratory results as given in publication PMC12508687, “Elucidating the Role and Mechanism of Alpha‐Enolase in Senescent Amelioration via Metabolic Reprogramming” (Cell Proliferation, 2025).

Legend:
Assay in all cases: microscale thermophoresis (MST)
Format in all cases: binding
alpha-enolase (ENO1) = target: T1, alpha-enolase (ENO1) (Homo sapiens, UniProt P06733)
T1 construct: His-tagged ENO1 protein

pyruvate kinase M (PKM) = target: T2, pyruvate kinase M (PKM) (Homo sapiens, UniProt P14618)
T2 construct: His-tagged PKM protein

ENO1 (S254A) = target: T3, ENO1 (S254A) (Homo sapiens, UniProt P06733, S254A)
T3 construct: His-tagged ENO1 (S254A) protein
T3 sequence (P06733 2-434 S254A): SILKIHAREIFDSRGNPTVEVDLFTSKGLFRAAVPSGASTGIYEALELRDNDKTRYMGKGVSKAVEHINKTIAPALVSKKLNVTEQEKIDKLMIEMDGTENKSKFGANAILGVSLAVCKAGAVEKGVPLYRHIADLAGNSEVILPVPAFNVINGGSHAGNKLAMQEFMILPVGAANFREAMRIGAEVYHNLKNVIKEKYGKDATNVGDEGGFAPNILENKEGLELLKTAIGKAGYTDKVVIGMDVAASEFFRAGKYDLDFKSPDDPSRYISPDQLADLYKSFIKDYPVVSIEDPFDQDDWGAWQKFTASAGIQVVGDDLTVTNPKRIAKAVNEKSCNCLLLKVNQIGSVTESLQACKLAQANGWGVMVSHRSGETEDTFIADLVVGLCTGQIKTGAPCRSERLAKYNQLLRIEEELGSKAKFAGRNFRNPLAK

T1 sequence (P06733 2-434): as the sequence (P06733 2-434 S254A) above, with A253S counted along it
T2 sequence (P14618 2-531): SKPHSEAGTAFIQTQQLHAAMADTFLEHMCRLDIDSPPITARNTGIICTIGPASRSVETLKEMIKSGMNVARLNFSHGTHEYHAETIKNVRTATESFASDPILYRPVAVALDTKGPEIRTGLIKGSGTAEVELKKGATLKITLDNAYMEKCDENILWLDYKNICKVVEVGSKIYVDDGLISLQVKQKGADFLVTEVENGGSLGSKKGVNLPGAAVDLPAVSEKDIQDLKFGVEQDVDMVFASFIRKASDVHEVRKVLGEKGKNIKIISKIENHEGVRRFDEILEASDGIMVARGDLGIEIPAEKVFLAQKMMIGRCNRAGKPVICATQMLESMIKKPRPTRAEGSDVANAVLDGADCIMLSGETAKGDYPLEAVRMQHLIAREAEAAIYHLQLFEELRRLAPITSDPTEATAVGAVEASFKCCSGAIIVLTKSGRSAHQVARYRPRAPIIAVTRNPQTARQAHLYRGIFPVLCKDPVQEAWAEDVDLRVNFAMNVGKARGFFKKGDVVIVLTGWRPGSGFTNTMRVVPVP

Kd (alpha-enolase (ENO1)): 0.0401 µM | Kd (pyruvate kinase M (PKM)): 9.32 µM | Kd (ENO1 (S254A)): 240 µM
SMILES: CCOC(=O)c1nc(-c2ccc(C(F)(F)F)cc2)oc1-c1cccc(C)c1 [KB2764]
